One compound from paper PMC8813987, “Schwann cell endosome CGRP signals elicit periorbital mechanical allodynia in mice” (Nature Communications, 2022) can be followed below.

This experiment addresses T1, CLR/RAMP1 (calcitonin receptor-like receptor) (Homo sapiens, UniProt O60894+Q16602).
T1 construct: gene CALCRL; with RAMP1
Nature of the experiment: inhibition of CGRP-evoked Ca2+ response in primary human Schwann cells (preincubation, then washout). Type of experiment: cell-based.

T1 sequence (Q16602 23-461): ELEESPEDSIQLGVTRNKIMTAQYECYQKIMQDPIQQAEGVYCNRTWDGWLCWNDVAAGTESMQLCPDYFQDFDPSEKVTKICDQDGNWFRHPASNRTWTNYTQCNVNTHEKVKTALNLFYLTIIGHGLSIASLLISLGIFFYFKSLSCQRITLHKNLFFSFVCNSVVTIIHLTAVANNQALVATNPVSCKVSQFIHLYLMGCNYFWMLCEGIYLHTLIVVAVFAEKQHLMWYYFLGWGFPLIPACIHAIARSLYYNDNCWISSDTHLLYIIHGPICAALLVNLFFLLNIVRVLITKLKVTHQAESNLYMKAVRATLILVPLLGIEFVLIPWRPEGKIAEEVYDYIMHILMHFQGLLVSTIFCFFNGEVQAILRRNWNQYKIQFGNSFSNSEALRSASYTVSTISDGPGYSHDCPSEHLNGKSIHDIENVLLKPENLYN
T1 sequence (O60894 27-148): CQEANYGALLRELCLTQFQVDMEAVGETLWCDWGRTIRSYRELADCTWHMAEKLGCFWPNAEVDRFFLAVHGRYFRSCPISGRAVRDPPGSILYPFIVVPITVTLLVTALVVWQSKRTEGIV

As usually defined, the IC50 is the point on the concentration scale where inhibition reaches its midpoint. Consider `O=C(CN1C(=O)C2(CCCC2)NC[C@H]1c1cc(F)cc(F)c1)Nc1ccc2c(c1)C[C@@]1(C2)C(=O)Nc2ncccc21` [MK-3207], for which the IC50 worked out at 2900 nM.
